Laboratory results from patent publication US20140243273A1, “METHODS FOR TREATING INFLAMMATORY DISEASES AND PHARMACEUTICAL COMBINATIONS USEFUL THEREFOR” (Vertex Pharmaceuticals Incorporated, priority 2011, published 2014).

Assays:
JAK2 = JAK2 (Homo sapiens, UniProt O60674); test: JAK2 Inhibition Assay; assay type: biochemical; settings: 5 nM JAK-2 enzyme, 15 μM poly(Glu)4Tyr, 12 μM ATP; kind of constant not given
Experimental: [The procedure below names another target; the source says it served here with some conditions changed.] (§1) Compounds were screened for their ability to inhibit JAK3 using the assay shown below. Reactions were carried out in a kinase buffer containing 100 mM HEPES (pH 7.4), 1 mM DTT, 10 mM MgCl2, 25 mM NaCl, and 0.01% BSA. Substrate concentrations in the assay were 5 μM ATP (200 uCi/μmole ATP) and 1 μM poly(Glu)4Tyr. Reactions were carried out at 25° C. and 1 nM JAK3.
(§2) To each well of a 96 well polycarbonate plate was added 1.5 μl of a compound of Formula I along with 50 μl of kinase buffer containing 2 μM poly(Glu)4Tyr and 10 μM ATP. This was then mixed and 50 μl of kinase buffer containing 2 nM JAK3 enzyme was added to start the reaction. After 15 minutes at room temperature (25° C.), the reaction was stopped with 50 μl of 20% trichloroacetic acid (TCA) that also contained 0.4 mM ATP. The entire contents of each well were then transferred to a 96 well glass fiber filter plate using a TomTek Cell Harvester. After washing, 60 μl of scintillation fluid was added and ^33P incorporation detected on a Perkin Elmer TopCount.

JAK3 = biological target: T1, JAK3 (Homo sapiens, UniProt P52333); test: JAK3 Inhibition Assay; assay type: biochemical; settings: 1 nM JAK3, 1 μM poly(Glu)4Tyr, 5 μM ATP, 25° C.; kind of constant not given
T1 sequence (P52333 1-1124): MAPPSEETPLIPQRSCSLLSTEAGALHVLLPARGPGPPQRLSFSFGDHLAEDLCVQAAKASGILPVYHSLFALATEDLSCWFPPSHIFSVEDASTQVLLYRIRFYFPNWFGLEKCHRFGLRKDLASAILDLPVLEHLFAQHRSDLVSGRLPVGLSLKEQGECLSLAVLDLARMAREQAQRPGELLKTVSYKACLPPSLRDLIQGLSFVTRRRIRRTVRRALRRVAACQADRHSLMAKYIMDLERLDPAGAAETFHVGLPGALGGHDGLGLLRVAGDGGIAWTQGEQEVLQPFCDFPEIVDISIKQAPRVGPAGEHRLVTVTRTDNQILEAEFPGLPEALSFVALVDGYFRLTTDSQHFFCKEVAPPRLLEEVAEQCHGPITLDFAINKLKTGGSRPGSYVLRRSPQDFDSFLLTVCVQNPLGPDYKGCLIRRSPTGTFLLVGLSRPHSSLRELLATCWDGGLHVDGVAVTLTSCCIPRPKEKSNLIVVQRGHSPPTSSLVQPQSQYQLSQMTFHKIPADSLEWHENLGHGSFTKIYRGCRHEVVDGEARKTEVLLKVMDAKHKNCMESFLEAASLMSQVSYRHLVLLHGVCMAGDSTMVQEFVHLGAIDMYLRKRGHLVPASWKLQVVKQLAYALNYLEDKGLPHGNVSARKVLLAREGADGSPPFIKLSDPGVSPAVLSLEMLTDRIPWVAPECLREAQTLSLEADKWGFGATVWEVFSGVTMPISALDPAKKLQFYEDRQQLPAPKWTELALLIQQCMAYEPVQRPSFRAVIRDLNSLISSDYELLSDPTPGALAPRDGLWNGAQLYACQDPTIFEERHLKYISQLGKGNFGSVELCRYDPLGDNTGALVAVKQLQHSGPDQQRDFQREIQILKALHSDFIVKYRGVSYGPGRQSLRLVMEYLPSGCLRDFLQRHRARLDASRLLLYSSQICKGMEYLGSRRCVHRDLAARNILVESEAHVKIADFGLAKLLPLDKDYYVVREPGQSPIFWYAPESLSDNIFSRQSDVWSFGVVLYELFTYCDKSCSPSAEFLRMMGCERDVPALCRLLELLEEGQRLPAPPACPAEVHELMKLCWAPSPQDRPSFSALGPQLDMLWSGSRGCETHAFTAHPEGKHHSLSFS
Experimental: as §1, §2

mouse colitis model = test: Mouse model for Crohn's disease and ulcerative colitis (CD4+CD25- T cell transfer into SCID mice); assay type: in vivo; settings: compound no. 9 (methane sulfonic acid), 50, 100, 150 mpk b.i.d., oral gavage, days 19-33, SCID mice
Experimental: Female SCID mice received grafts of 2.5×10e5 CD4+CD25-T cells from naïve BALB/c wild type donors (all Charles River Laboratories) to induce colitis. On day 14, after cell transfer, the recipient SCID mice were tested for graft acceptance and mice without T cells removed from the study. On days 19-33, the recipient SCID mice were administered compound no. 9 (methane sulfonic acid) mixed with vehicle (1% HPMC-c5, 50 mM Na citrate, pH 3.0) in doses of 50, 100, and 150 mpk b.i.d. Control mice were administered either saline, vehicle (1% HPMC-c5, 50 mM Na citrate, pH 3.0), or 1 mpk dexamethasone, b.i.d. Doses were administered via oral gavage. On day 35, the mice were sacrificed.

Sequence of JAK2 (O60674 whole entry, species assumed): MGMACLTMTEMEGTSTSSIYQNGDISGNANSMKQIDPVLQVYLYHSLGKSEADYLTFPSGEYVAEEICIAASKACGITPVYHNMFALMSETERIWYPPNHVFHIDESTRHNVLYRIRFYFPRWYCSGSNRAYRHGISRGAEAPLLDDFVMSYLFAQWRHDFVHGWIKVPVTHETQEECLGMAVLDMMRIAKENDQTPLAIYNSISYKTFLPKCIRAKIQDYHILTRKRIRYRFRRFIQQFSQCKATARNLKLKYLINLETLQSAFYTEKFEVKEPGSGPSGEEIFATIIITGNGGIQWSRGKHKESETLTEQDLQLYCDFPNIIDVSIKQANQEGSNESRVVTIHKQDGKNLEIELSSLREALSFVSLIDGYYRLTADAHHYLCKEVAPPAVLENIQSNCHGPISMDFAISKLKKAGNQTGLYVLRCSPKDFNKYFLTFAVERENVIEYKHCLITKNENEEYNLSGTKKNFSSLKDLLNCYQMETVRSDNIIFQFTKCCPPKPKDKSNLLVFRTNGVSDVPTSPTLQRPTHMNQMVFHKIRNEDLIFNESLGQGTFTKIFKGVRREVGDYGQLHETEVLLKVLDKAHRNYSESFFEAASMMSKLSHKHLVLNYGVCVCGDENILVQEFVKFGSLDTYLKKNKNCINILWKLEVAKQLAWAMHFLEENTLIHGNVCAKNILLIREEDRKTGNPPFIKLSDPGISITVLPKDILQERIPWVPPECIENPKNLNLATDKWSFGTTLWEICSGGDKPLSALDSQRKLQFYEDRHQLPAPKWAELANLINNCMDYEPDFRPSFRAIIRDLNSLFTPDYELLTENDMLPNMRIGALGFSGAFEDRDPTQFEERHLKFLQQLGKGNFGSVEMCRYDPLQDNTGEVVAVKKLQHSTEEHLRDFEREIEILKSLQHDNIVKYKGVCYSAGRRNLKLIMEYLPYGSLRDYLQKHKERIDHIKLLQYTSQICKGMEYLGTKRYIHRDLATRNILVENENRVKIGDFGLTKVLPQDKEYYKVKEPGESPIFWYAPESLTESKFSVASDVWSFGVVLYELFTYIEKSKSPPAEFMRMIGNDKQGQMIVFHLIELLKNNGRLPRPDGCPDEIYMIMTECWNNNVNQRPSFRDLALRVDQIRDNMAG

Row | SMILES | JAK2 (μM), inhibition data (JAK2) [µM] | JAK3 (μM), inhibition data (JAK3) [µM] | colon histology (mouse colitis model) | colon pathology (mouse colitis model) | frequency of splenic CD4+ T cells (mouse colitis model) | inflammatory cytokine production (mouse colitis model; colon tissue)
1 | CC[C@](C)(Nc1nc(-c2c[nH]c3ncccc23)ncc1F)C(=O)NCC(F)(F)F [compound 3] | 0.028 | 0.0042 |  |  |  | 
2 | CC(C)(Nc1ccnc(-c2c[nH]c3ncc(Cl)cc23)n1)C(=O)NCC(F)(F)F [Compound No. 9] | 0.001 | 0.001 | Improvements | improved | significant reduction | improved
3 | CC(C)[C@](C)(Nc1ccnc(-c2c[nH]c3ncc(Cl)cc23)n1)C(=O)NCC(F)(F)F [compound 18] | 0.0007 | 0.001 |  |  |  | 
4 | CC[C@@](C)(Nc1ccnc(-c2c[nH]c3ncc(Cl)cc23)n1)C(=O)NCC(F)(F)F [compound 16] | 0.01 | 0.002 |  |  |  | 
5 | CC(C)(Nc1nc(-c2c[nH]c3ncc(Cl)cc23)ncc1F)C(=O)NCC(F)(F)F [compound 19] | 0.001 | 0.004 |  |  |  | 
6 | CC(C)[C@](C)(Nc1nc(-c2c[nH]c3ncc(Cl)cc23)ncc1F)C(=O)NCC(F)(F)F [compound 10] | 0.001 | 0.002 |  |  |  | 
7 | CC(C)[C@](C)(Nc1ccnc(-c2c[nH]c3ncccc23)n1)C(=O)NCC(F)(F)F [compound 5] | 0.0042 | 0.0024 |  |  |  | 
8 | CC(C)(Nc1ccnc(-c2c[nH]c3ncccc23)n1)C(=O)NCC(F)(F)F [compound 2] | 0.028 | 0.0032 |  |  |  | 

Continued, in another order:

Row | JAK2 (μM), inhibition data (JAK2) [µM] | JAK3 (μM), inhibition data (JAK3) [µM] | SMILES | colon histology (mouse colitis model) | colon pathology (mouse colitis model) | frequency of splenic CD4+ T cells (mouse colitis model) | inflammatory cytokine production (mouse colitis model; colon tissue)
9 | 0.055 | 0.006 | CC(C)[C@@](C)(Nc1nc(-c2c[nH]c3ncc(Cl)cc23)ncc1F)C(=O)NCC(F)(F)F [compound 11] |  |  |  | 
10 | 0.056 | 0.018 | CCN(C)C(=O)[C@](C)(CC)Nc1ccnc(-c2c[nH]c3ncccc23)n1 [compound 7] |  |  |  | 
11 | 0.002 | 0.003 | CC[C@](C)(Nc1ccnc(-c2c[nH]c3ncc(Cl)cc23)n1)C(=O)NCC(F)(F)F [compound 14] |  |  |  | 
12 | 0.037 | 0.006 | CC[C@@](C)(Nc1nc(-c2c[nH]c3ncc(Cl)cc23)ncc1F)C(=O)NCC(F)(F)F [compound 12] |  |  |  | 
13 | 0.015 | 0.003 | CC[C@@](C)(Nc1ccnc(-c2c[nH]c3ncccc23)n1)C(=O)NCC(F)(F)F [compound 1] |  |  |  | 
14 | 0.083 | 0.019 | CCNC(=O)C(C)(C)Nc1ncnc(-c2c[nH]c3ncccc23)n1 [compound 8] |  |  |  | 
15 | 0.003 | 0.001 | CC(C)(Nc1ncnc(-c2c[nH]c3ncc(Cl)cc23)n1)C(=O)NCC(F)(F)F [compound 13] |  |  |  | 
16 | 0.001 | 0.002 | CC[C@](C)(Nc1nc(-c2c[nH]c3ncc(Cl)cc23)ncc1F)C(=O)NCC(F)(F)F [compound 15] |  |  |  | 
17 | 0.046 | 0.0045 | CC(C)(Nc1ncnc(-c2c[nH]c3ncccc23)n1)C(=O)NCC(F)(F)F [compound 6] |  |  |  | 
18 | 0.091 | 0.0056 | CC(C)(Nc1nc(-c2c[nH]c3ncccc23)ncc1F)C(=O)NCC(F)(F)F [compound 4] |  |  |  | 
19 | 0.003 | 0.001 | CCNC(=O)C(C)(C)Nc1ccnc(-c2c[nH]c3ncc(Cl)cc23)n1 [compound 17] |  |  |  | 
